In patent US20040120954A1, “Regulation of mt1-mmp activity” (priority 2000, published 2004):

Legend:
MT1-MMP [1] = assay: Activation of proMMP-2 by MT1-MMP on the cell surface of transfected cells (gelatin zymography); type: cell-based, human; conditions: transfected COS1 cells, exogenous purified proMMP-2 (FIGS. 2, 20)
Protocol: (§1) Gelatin zymography was conducted using an SDS-polyacrylamide gel (PAGE) containing gelatin (0.8 mg/ml) (Itoh, Y. et al., J. Biol. Chem., 273: 24360-24367, 1998). The samples were mixed with a SDS-PAGE loading buffer without a reducing agent and subjected to electrophoretic analysis at room temperature. Enzyme activity was visualized as a negative staining area with Coomassie Brilliant Blue R-250.
(§2) The expression construct for FLAG epitope ([…]-tagged MT1-MMP (MT1-F) described in Itoh, Y. et al., J. Biol. Chem., 274: 34260-34266, 1999 was used as a template to generate cDNA for MT1Cat-F (A Ile^318-Gly^535) by the PCR extension method of Ho et al., (Ho, S. N. et al., Gene, 77: 51-59, 1989). The cDNA was subcloned into pSG5 (Stratagene, CA, USA). The PCR-generated fragments were confirmed by DNA sequencing. COS1 cells were transfected with the expression vector for MT1-MMP mutant; MT1-F or MT1Cat-F, or a vector alone (Mock). Expression vectors for each protein were transfected using FuGENE6™ (Roche Molecular Biochemicals) according to the manufacturer's instructions. COS1 cells were seeded in 6-well plates at 1.5×10^5/well at 16 hrs before the transfection was performed. The COS1 cells were maintained in a HAM F-12 medium or DMEM containing 10% fetal bovine serum in a humidified incubator at 37° C. At 48 hrs after the transfection, the cells were collected for use in the experiments. The cells were incubated in the presence of purified proMMP-2 in a serum-free medium (0.25 μg/ml) at 37° C. for 18 hrs. Cell lysates were tested for the expression of the mutants, while culture supernatants were tested for the activation of proMMP-2.
(§3) To investigate roles of dimer formation upon the activation of proMMP-2, MT1-F was introduced into COS1 cells together with MT1PEX-F. The co-introduced cells were reacted with exogenously added proMMP-2. Thus, COS1 cells were co-transfected with the MT1-F and MT1PEX-F at indicated DNA amount ratios. Next, purified proMMP-2 (0.25 μg/ml) in a serum-free medium was reacted with the resulting cells at 37° C. for 18 hrs. MMP-2 in the culture supernatant was analyzed by gelatin zymography, and the cell lysates were subjected to Western blotting analysis using a monoclonal anti-FLAG M2 antibody.
(§4) Next, to determine if MT1PEX-F affects the catalytic activity of MT1-MMP on the cell surface or not, tests for gelatin degrading activity and binding capacity to TIMP-2 were conducted using cells transfected in the same incubator. As shown in FIGS. 12 through 14, CHO-K1 cells were transfected with an expression vector for MT1-F, MT1-F/MT1PEX-F or MT1Cat-F, or a vector alone (Mock). The cells were then treated with trypsin, and separately seeded to: DQ™ gelatin-coated cover slips for testing the proteolytic activity (FIG. 13); and 24-well plates for TIMP-2 binding assay (FIG. 12) and for the activation of proMMP-2 (FIG. 14). Transfected cells on the DQ™ gelatin-coated cover slip as shown in FIG. 13 were incubated in a medium at 37° C. for 18 hrs, and the generated fluorescence was analyzed using confocal microscopy. Transfected cells on the 24-well plate as shown in FIG. 12 were incubated with 25 nM ^125I-labeled TIMP-2 in the presence or absence of BB-94 (50 μM) at 0° C. for 1 hr. MT1-MMP specific binding was calculated by subtracting the datum obtained in the presence of BB-94 (50 μM) from each datum derived from the corresponding experiments. […] DQ™ gelatin is a fluorescence-quenched gelatin, which fluoresces upon proteolytic cleavage. […]

MT1-MMP [2] = assay: In situ gelatin degrading assay (DQ gelatin or Alexa488-conjugated gelatin); type: cell-based, human; conditions: DQ gelatin; CHO-K1 (FIG. 13) or COS1 cells (FIG. 22)
Protocol: (§5) Two different in situ gelatin degrading assays were performed. One used DQ™ gelatin (Molecular Probes, Inc., OR, USA). DQ gelatin is a fluorescence-quenched gelatin substrate, and will fluoresce upon proteolytic cleavage. Glass cover slips were coated with 5% DQ™ gelatin in a 10 mg/ml unlabeled gelatin solution, and dried. Transfected cells were cultured on the cover slip in a humidified chamber for 16 hrs. The cells were then fixed with 3% para-formaldehyde and the degraded areas were visualized as those showing fluorescence.
(§6) The other assay used Alexa488-conjugated gelatin made with an Alexa488-labeling kit (Molecular Probes). The bottom surfaces of 4-well chamber slides (Nunc) were coated with Alexa488-conjugated gelatin according to the method of Yana, I. and Weiss, S. J., Mol. Biol. Cell, 11, 2387-2401, 2000. Transfected COS1 cells were cultured in the chamber slides for 16 hrs in a humidified culture incubator. The cells were then fixed with 3% para-formaldehyde in PBS, and the degraded area was analyzed under a fluorescence microscope. The degraded area was visualized as a dark, non-fluorescent area. Fluorescence images were analyzed using confocal microscopy (BioRad).
as §4, with “experiments. Identically transfected cells on the 24-well plate as shown in FIG. 14 were subjected to the reaction with purified proMMP-2 in a serum-free medium at 37° C. for 18 hrs. The cells and culture supernatants were respectively subjected to Western blotting analysis using a monoclonal anti-FLAG M2 antibody, and gelatin zymography analysis.” for “experiments.”

MT1-MMP [3] = target: T1, MT1-MMP (Homo sapiens, UniProt P50281); assay: Activation of proMMP-2 by MT1-MMP on the cell surface of transfected cells (gelatin zymography); type: cell-based
T1 construct: expressed in transfected cells
Protocol: as §1, §2, §3, §4

HT1080 cells = assay: Activation of endogenous proMMP-2 in HT1080 cells (zymography, Western blotting); type: cell-based, human
Protocol: FIG. 31: In regard to the efficacy of MT1PEX-F on the matrigel invasive action of HT1080 cells, HT1080 cells were transfected with the stable expression plasmids for MT1PEX-F and the empty vector (Mock). Hygromycin resistant cells were collected and re-seeded. The culture medium was changed to a serum-free medium in the presence or absence of BB94, and the cells were further cultured. The culture media and the cell lysates were analyzed by gelatin zymography and Western blotting using an anti-MT1PEX antibody, respectively.
HT1080 cells are known to express MT1-MMP and MMP-2 endogenously. Thus, the efficacy of MT1PEX-F expression on the activation of endogenous proMMF-2 in HT1080 cells was next examined. The cells were transfected with a plasmid for MT1PEX-F or an empty vector bearing the hygromycin-resistant gene. The culture medium from the hygromycin-resistant cells was analyzed for produced MMP-2 by zymography. […] Co-expression of endogenous MT1-MMP and MT1PEX-F clearly indicated the co-localization of both molecules at the edge of the cells (FIG. 32).

MT1-MMP [4] = target: T1, MT1-MMP; assay: In situ gelatin degrading assay (DQ gelatin or Alexa488-conjugated gelatin); type: cell-based; conditions: COS1 cells co-transfected with MT1-MMP, Alexa488-labeled gelatin (FIG. 30)
Protocol: as §5, §6
as §4, with “experiments. Identically transfected cells on the 24-well plate as shown in FIG. 14 were subjected to the reaction with purified proMMP-2 in a serum-free medium at 37° C. for 18 hrs. The cells and culture supernatants were respectively subjected to Western blotting analysis using a monoclonal anti-FLAG M2 antibody, and gelatin zymography analysis.” for “experiments.”

| Substance | activation of proMMP-2 by cells expressing the mutant (MT1-MMP [1]) | gelatin degrading (proteolytic) activity of cells expressing the mutant (MT1-MMP [2]) | effect on the activation of proMMP-2 (MT1-MMP [3]; CHO-K1 cells co-transfected with MT1-F and MT1PEX-F (FIG. 14)) | effect on the activation of proMMP-2 by MT1-F (MT1-MMP [3]; COS1 cells co-transfected at indicated DNA ratios, proMMP-2 0.25 μg/ml, 37° C., 18 hrs (FIGS. 11 and 28)) | effect on expression and processing of endogenous MT1-MMP (HT1080 cells; HT1080 cell lysates, Western blotting (FIG. 31)) | activation of endogenous proMMP-2 (HT1080 cells; hygromycin-resistant HT1080 cells, serum-free medium (FIG. 31)) | effect on the proteolytic activity of MT1-MMP on the cell surface (MT1-MMP [4]) |
| --- | --- | --- | --- | --- | --- | --- | --- |
| MT1Cat-F: PEX-deleted FLAG-tagged MT1-MMP (Δ Ile318-Gly535) | did not activate at all | exhibited the gelatin degrading activity | – | – | – | – | – |
| MT1PEX-F: Catalytic domain-deleted FLAG-tagged MT1-MMP (Δ Tyr112-Pro312), expressed by transfection | – | – | completely inhibited the activation of proMMP-2 | inhibited the activation of proMMP-2 by MT1-F, in dependence upon the expression level | did not affect the expression and processing of endogenous MT1-MMP | did not effectively activate proMMP-2 | did not affect the proteolytic activity |
